Measured values as given in patent US9730945B2, “Diagnosis of autism spectrum disorders and its treatment with an antagonist or inhibitor of the 5-HT2c receptor signaling pathway” (Massachusetts Institute of Technology, priority 2009, dated 2017).
“Also recorded” adds a separate entry of the source.

System: Pten haploinsufficient mice
Assay: Social approach behavior assay (three-chamber apparatus)
Assay type: in vivo
Conditions: female Pten haploinsufficient mice, 8 weeks of age, IP 0.3 mg/kg, 20 minutes prior to assay, quantified over 10 minutes, preliminary test
Method: FIG. 5: Effects of the 5-HT2cR antagonist SB 242084 on social approach behavior in Pten haploinsufficient mice. The mice tested were female littermates, 8 weeks of age. The mice were given an IP injection of 0.3 mg/kg of SB 242084 or vehicle, 20 minutes prior to start of the assay. A social stimulus mouse was placed in chamber 1 and an identical empty cage was placed in chamber 3. The percent time the subject mouse spent interacting with the stimulus mouse was quantified over 10 minutes. […] For vehicle treated groups, n=6; for SB 242084-treated groups, n=8. * P<0.05, ANOVA within group comparison between chamber 1 and chamber 3. In each group of bars, the order is: left bar=chamber 1, middle bar=chamber 2, right bar=chamber 3.
A mouse was placed in an open top acrylic box (24″L×12″W×12″H) with opaque walls. The box was divided into three (8″L×12″W) chambers separated by opaque acrylic panels with holes providing passage between chambers. For reference, the chambers were numbered, from left to right 1, 2, and 3. […] The resulting video was scored with computer assistance by importing into ImageJ software (http://rsb.info.nih.gov/ij/), where each chamber was defined as a region of interest using a script written in-house, and the number of frames in which the mouse was in each region of interest was quantified. […]

For Cc1cc2c(cc1Cl)N(C(=O)Nc1ccc(Oc3cccnc3C)nc1)CC2 [SB 242084, 6-Chloro-5-methyl-1-[[2-(2-methylpyrid-3-yloxy)pyrid-5-yl]carbamoyl]indoline], the “social approach behavior (percent time interacting with stimulus mouse, chamber 1 vs chamber 3)” value was “can offset deficits in social approach behavior; also recorded: significant preference for interacting with the stimulus mouse”.
